Experimental data taken from EP1674457B1, “Derivatives of squaric acid with anti-proliferative activity” (GPC Biotech AG, priority 2004, dated 2006).
Where two headings read alike, the source gives them in different places.

Assays:
[1] = test system: MCF7; experiment: IC50 determination by SRB assay (Example 62); format: cell-based
Description: (§1) 3,000-15,000 cells/well were exposed to the test compounds at a concentration of 1 µM for 48 hours, and cytotoxicty was measured using the SRB assay according to Shekan et al (J Natl Cancer Inst (1990) 82, 1107-112). Briefly, cells were plated in 96 well dishes 24 hours prior to compound addition. The assay was terminated with the addition of cold TCA to a final concentration of 10% and the plates were incubated for one hour at 4°C. The plates were then washed 5 times with water and 100µl of a Sulforhodamine B solution (4%) was added to each well. The plate was then incubated for 10 minutes at room temperature before removal of unbound dye by washing with 1% acetic acid. The bound dye was solubilized with 10 mM Trizma base and the absorbance read at OD570. Inhibitory activity of the compounds was calculated as % inhibition compared to cells treated with the solvent (DMSO). Table 2 represents the growth inhibitory activity of certain compunds of the invention across a number of tumor cell lines.
(§2) The assay was performed similar to example 61. However, test compounds were added at various concentrations, such as from 0.001 to about 0.1 µM, from 0.1 to about 10 µM, or from 1 to about 10 µM, as the need may be, in order to estimate the IC50 values. IC50 values were determined by plotting the percentage inhibitory activity for each concentration, fitting a curve using appropriate software and estimating the concentration at which 50% inhibition of growth would occur.

[2] = test system: HCT-116; experiment: IC50 determination by SRB assay (Example 62); format: cell-based; settings: HCY-116
Description: as §1, §2

[3] = test system: SW-620; experiment: IC50 determination by SRB assay (Example 62); format: cell-based
Description: as §1, §2

[4] = test system: A2780; experiment: SRB assay, inhibition of tumor cell growth at 1 µM (Example 61); format: cell-based, Human; settings: 48 hours; for inhibition at 1 µM: Homo sapiens
Description: as §1

[5] = test system: MCF7; experiment: as above; format: cell-based; settings: 48 hours; for inhibition at 1 µM: Homo sapiens
Description: as §1

[6] = test system: HCT-116; experiment: as above; format: cell-based; settings: 48 hours; for inhibition at 1 µM: Homo sapiens
Description: as §1

[7] = test system: SW-620; experiment: as above; format: cell-based; settings: 48 hours; for inhibition at 1 µM: Homo sapiens
Description: as §1

[8] = test system: PC-3; experiment: as above; format: cell-based; settings: 48 hours; for inhibition at 1 µM: Homo sapiens
Description: as §1

[9] = test system: A-549; experiment: as above; format: cell-based; settings: for % Inhibition (1 µM): 48 hours; for inhibition at 1 µM: Homo sapiens, A549, 48 hours
Description: as §1

[10] = test system: A2780; experiment: IC50 determination by SRB assay (Example 62); format: cell-based; settings: Homo sapiens
Description: as §1, §2

[11] = test system: PC-3; experiment: IC50 determination by SRB assay (Example 62); format: cell-based; settings: Homo sapiens
Description: as §1, §2

| Compound | IC50 [1] [nM] | IC50 [2] [nM] | IC50 [3] [nM] | IC50 ([1]; Homo sapiens) [nM] | IC50 [10] [nM] | IC50 ([2]; Homo sapiens, HCT-116) [nM] | IC50 ([3]; Homo sapiens) [nM] | IC50 [11] [nM] | % Inhibition (1 µM) [4] [%] | % Inhibition (1 µM) [5] [%] | % Inhibition (1 µM) [6] [%] | % Inhibition (1 µM) [7] [%] | % Inhibition (1 µM) [8] [%] | % Inhibition (1 µM) [9] [%] | inhibition at 1 µM [4] [%] | inhibition at 1 µM [9] [%] | inhibition at 1 µM [5] [%] | inhibition at 1 µM [6] [%] | inhibition at 1 µM [7] [%] | inhibition at 1 µM [8] [%] |
| --- | --- | --- | --- | --- | --- | --- | --- | --- | --- | --- | --- | --- | --- | --- | --- | --- | --- | --- | --- | --- |
| 3-[2-(4-Phenoxyphenyl)-ethylamino]-4-(pyridin-3-yl-amino)-cyclobut-3-ene-1,2-dione [SQ-5] | < 10000 | < 100 | < 2000 |  |  |  |  |  | >80 | >50 | >80 | 0 | >50 |  |  |  |  |  |  |  |
| 3-[4-Phenoxybenzylamino]-4-(pyridin-4-yl-amino)-cyclobut-3-ene-1,2-dione [SQ-34] |  |  |  |  |  |  |  |  | >20 |  | >20 | 0 | >0 | 0 |  |  |  |  |  |  |
| 3-[6-(3,4-Dichlorophenoxy)-hexylamino)]-4-(pyridin-4yl-amino)-3-cyclobutene-1,2-dione [SQ-15] |  | < 100 | < 500 |  |  |  |  |  | >80 | >20 | >80 | >20 | >50 | >20 |  |  |  |  |  |  |
| O=c1c(NCCCCCCOc2ccc(Cl)cc2)c(Nc2cccnc2)c1=O [SQ-1B] |  |  |  | < 10 | < 100 | < 20 | < 2000 |  |  |  |  |  |  |  | > 80 | > 20 | > 80 | > 80 | > 20 | > 50 |
| O=c1c(NCCc2ccc(Oc3ccc(Cl)cc3)cc2)c(Nc2cccnc2)c1=O [SQ-6, 3-{2-[4-(4-Chlorophenoxy)-phenyl]-ethylamino}-4-(pyridin-3-yl-amino)-cyclobut-3-ene-1,2-dione] |  |  |  |  | < 20 | < 100 |  | < 500 |  |  |  |  |  |  |  |  |  |  |  |  |
| O=c1c(NCCCCCOc2ccc(Cl)cc2)c(Nc2ccncc2)c1=O [SQ-8] |  |  |  | < 100 |  | < 100 | < 2000 |  |  |  |  |  |  |  | > 80 | > 5 | > 80 | > 80 | > 20 | > 50 |
| O=c1c(NCCCCOc2ccc(Cl)cc2)c(Nc2ccncc2)c1=O [SQ-10] |  |  |  | < 2000 |  | < 2000 | < 10000 |  |  |  |  |  |  |  | > 50 | 0 | > 50 | > 50 | > 20 |  |
| O=c1c(NCCCCCCCOc2ccc(Cl)cc2)c(Nc2ccncc2)c1=O [SQ-11A] |  |  |  | < 100 |  | < 100 | < 2000 |  |  |  |  |  |  |  | > 80 | > 5 | > 80 | > 80 | > 50 | > 20 |
| Cc1ccc(OCCCCCCNc2c(Nc3ccncc3)c(=O)c2=O)cc1 [SQ-13] |  |  |  |  |  | < 100 | < 2000 |  |  |  |  |  |  |  | > 80 | > 20 | > 5 | > 80 | > 20 | > 50 |
| COc1ccc(OCCCCCCNc2c(Nc3ccncc3)c(=O)c2=O)cc1 [SQ-14] |  |  |  |  |  | < 100 | < 2000 |  |  |  |  |  |  |  | > 80 | > 20 | > 5 | > 80 | > 20 | > 50 |
| O=c1c(NCCc2ccc(Oc3ccccc3)cc2)c(Nc2ccncc2)c1=O [SQ-17, 3-[2-(4-Phenoxyphenyl)-ethylamino]-4-(pyridin-4-yl-amino)-cyclobut-3-ene-1,2-dione] |  |  |  | < 10000 | < 100 | < 20 | < 500 |  |  |  |  |  |  |  | > 80 | > 50 |  | > 80 | > 20 | > 50 |
| O=c1c(NCCCCCCOc2ccc(C(F)(F)F)cc2)c(Nc2ccncc2)c1=O [SQ-18, 3-[6-(4-Trifluoromethylphenoxy)-hexylamino]-4-(pyridin-4-yl-amino)-cyclobut-3-ene-1,2-dione] |  |  |  | < 10000 |  |  | < 2000 |  |  |  |  |  |  |  | > 80 | > 20 |  | > 80 | > 20 | > 50 |
| N#Cc1ccc(OCCCCCCNc2c(Nc3ccncc3)c(=O)c2=O)cc1 [SQ-19, 4-{6-[3,4-Dioxo-2-(pyridin-4-ylamino)-cyclobut-1-enylamino]-hexyloxy}-benzonitrile] |  |  |  |  |  |  |  |  |  |  |  |  |  |  | > 50 | > 0 |  | > 5 | > 5 | > 5 |
| O=c1c(NCc2cccc(Oc3ccc(Cl)cc3)c2)c(Nc2cccnc2)c1=O [SQ-33, 3-[3-(4-Chlorophenoxy)-benzylamino]-4-(pyridin-3-yl-amino)-cyclobut-3-ene-1,2-dione] |  |  |  |  |  |  |  |  |  |  |  |  |  |  | > 20 | 0 | 0 | > 50 | > 5 | 0 |

Further lines, with some results ahead:

| IC50 [1] [nM] | IC50 [2] [nM] | IC50 [3] [nM] | IC50 ([1]; Homo sapiens) [nM] | IC50 [10] [nM] | IC50 ([2]; Homo sapiens, HCT-116) [nM] | IC50 ([3]; Homo sapiens) [nM] | IC50 [11] [nM] | Compound | % Inhibition (1 µM) [4] [%] | % Inhibition (1 µM) [5] [%] | % Inhibition (1 µM) [6] [%] | % Inhibition (1 µM) [7] [%] | % Inhibition (1 µM) [8] [%] | % Inhibition (1 µM) [9] [%] | inhibition at 1 µM [4] [%] | inhibition at 1 µM [9] [%] | inhibition at 1 µM [5] [%] | inhibition at 1 µM [6] [%] | inhibition at 1 µM [7] [%] | inhibition at 1 µM [8] [%] |
| --- | --- | --- | --- | --- | --- | --- | --- | --- | --- | --- | --- | --- | --- | --- | --- | --- | --- | --- | --- | --- |
|  |  |  | < 20 | < 20 | < 20 | < 10000 |  | O=c1c(NCCCCCOc2ccc(Cl)cc2)c(Nc2cccnc2)c1=O [SQ-2] |  |  |  |  |  |  | > 80 | > 50 | > 80 | > 80 | > 50 | > 50 |
|  |  |  | < 100 | < 100 | < 100 |  |  | O=c1c(NCCCCCCOc2ccc(Cl)cc2)c(Nc2ccncc2)c1=O [SQ-7B] |  |  |  |  |  |  | > 80 |  |  | > 80 | > 50 | > 50 |
|  |  |  | < 500 |  |  | < 2000 |  | O=c1c(NCCCCCCCCOc2ccc(Cl)cc2)c(Nc2ccncc2)c1=O [SQ-9] |  |  |  |  |  |  | > 80 | > 5 | > 80 | > 80 | > 50 | > 50 |
|  |  |  | < 20 |  | < 20 | < 500 |  | O=c1c(NCCCCCCCOc2ccccc2)c(Nc2ccncc2)c1=O [SQ-11B, 3-(7-Phenoxyheptylamino)-4-(pyridin-4yl-amino)-3-cyclobutene-1,2-dione] |  |  |  |  |  |  | > 80 | > 50 | > 80 | > 80 | > 50 | > 50 |
|  |  |  |  | < 20 | < 100 |  | < 500 | O=c1c(NCCc2ccc(Oc3ccc(Cl)cc3)cc2)c(Nc2ccncc2)c1=O [SQ-20, 3-{2-[4-(4-Chlorophenoxy)-phenyl]-ethylamino}-4-(pyridin-4-yl-amino)-cyclobut-3-ene-1,2-dione] |  |  |  |  |  |  |  |  |  |  |  |  |
|  |  |  |  |  | < 500 | < 2000 |  | O=c1c(NCCCCCCNc2ccc(Cl)cc2)c(Nc2ccncc2)c1=O [SQ-25, 3-[6-(4-Chlorophenylamino)-hexylamino]-4-(pyridin-4-yl-amino)-cyclobut-3-ene-1,2-dione] |  |  |  |  |  |  | > 80 | > 20 | > 5 | > 80 | > 20 | > 50 |
|  |  |  |  |  | < 100 | < 2000 |  | O=c1c(NCCCCCCNc2ccc(Cl)cc2)c(Nc2cccnc2)c1=O [SQ-26, 3-[6-(4-Chlorophenylamino)-hexylamino]-4-(pyridin-3-yl-amino)-cyclobut-3-ene-1,2-dione] |  |  |  |  |  |  | > 80 | > 50 | > 5 | > 80 | > 20 | > 50 |
|  |  |  | < 500 |  | < 2000 | > 10000 |  | O=c1c(NCc2ccc(Oc3ccc(Cl)cc3)cc2)c(Nc2cccnc2)c1=O [SQ-30, 3-[4-(4-Chlorophenoxy)-benzylamino]-4-(pyridin-3-yl-amino)-cyclobut-3-ene-1,2-dione] |  |  |  |  |  |  | > 80 | > 50 | > 80 | > 80 | > 20 | > 20 |
|  |  |  | > 10000 | < 100 | < 100 | > 10000 |  | O=c1c(NCc2ccc(COc3ccc(Cl)cc3)cc2)c(Nc2cccnc2)c1=O [SQ-32, 3-[4-(4-Chlorophenoxymethyl)-benzylamino]-4-(pyridin-3-yl-amino)-cyclobut-3-ene-1,2-dione] |  |  |  |  |  |  | > 80 | > 20 | > 20 | > 80 | > 5 | > 50 |
